Experimental data published in PubChem BioAssay (NCI).
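Compound exposure: 48 hours, 5 concentrations, 96-well plates. At the GI50, growth is halved. TGI: concentration producing complete growth inhibition.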

Key:
Experiment in all cases: NCI-60 cell line screen, 48 h
[1] = test system: SF-295 CNS
[2] = test system: HL-60(TB) leukemia
[3] = test system: NCI/ADR-RES ovarian
[4] = test system: SNB-19 CNS
[5] = test system: UACC-257 melanoma
[6] = test system: ACHN renal
[7] = test system: PC-3 prostate
[8] = test system: HCT-15 colon
[9] = test system: KM12 colon
[10] = test system: SK-OV-3 ovarian
[11] = test system: A549 NSCLC
[12] = test system: EKVX NSCLC
[13] = test system: U251 CNS
[14] = test system: CCRF-CEM leukemia
[15] = test system: NCI-H226 lung
[16] = test system: HS 578T breast
[17] = test system: SW-620 colon
[18] = test system: CAKI-1 renal
[19] = test system: MCF7 breast
[20] = test system: MDA-MB-468 breast
[21] = test system: TK-10 renal
[22] = test system: RXF 393 renal
[23] = test system: COLO 205 colon
[24] = test system: DU-145 prostate
[25] = test system: 786-0 renal
[26] = test system: OVCAR-8 ovarian
[27] = test system: SK-MEL-5 melanoma
[28] = test system: SK-MEL-28 melanoma
[29] = test system: NCI-H460 lung
[30] = test system: HOP-92 NSCLC
[31] = test system: LOX IMVI melanoma
[32] = test system: HT29 colon
[33] = test system: HCC-2998 colon
[34] = test system: BT-549 breast
[35] = test system: OVCAR-3 ovarian
[36] = test system: T-47D breast
[37] = test system: HOP-62 NSCLC
[38] = test system: IGROV1 ovarian
[39] = test system: SR leukemia
[40] = test system: A498 renal
[41] = test system: M14 melanoma
[42] = test system: UACC-62 melanoma
[43] = test system: MDA-MB-435
[44] = test system: RPMI-8226 leukemia
[45] = test system: SN12C renal
[46] = test system: HCT-116 colon
[47] = test system: OVCAR-4 ovarian
[48] = test system: SF-268 CNS
[49] = test system: K-562 leukemia
[50] = test system: OVCAR-5 ovarian
[51] = test system: SF-539 CNS
[52] = test system: NCI-H522 lung
[53] = test system: MOLT-4 leukemia
[54] = test system: MALME-3M melanoma
[55] = test system: NCI-H23 lung
[56] = test system: SK-MEL-2 melanoma
[57] = test system: SNB-75 CNS
[58] = test system: UO-31 renal
[59] = test system: MDA-MB-231 breast

SMILES: O=C(CSc1nc2sc3c(c2c(=O)n1-c1ccc(Cl)cc1)CCCC3)N/N=C/C=C/c1ccccc1
- GI50 [1]: 4.92 µM
- TGI [1]: 22.4 µM
- GI50 [2]: > 100 µM
- TGI [2]: > 100 µM
- GI50 [3]: 3.58 µM
- TGI [3]: 16 µM
- GI50 [4]: 18.2 µM
- TGI [4]: > 100 µM
- GI50 [5]: 11.8 µM
- TGI [5]: 87.8 µM
- GI50 [6]: 4.22 µM
- TGI [6]: 29.2 µM
- GI50 [7]: 3.04 µM
- TGI [7]: 17.9 µM
- GI50 [8]: 2.96 µM
- TGI [8]: 10.4 µM
- GI50 [9]: 16.7 µM
- TGI [9]: 63.6 µM
- GI50 [10]: 14.2 µM
- TGI [10]: 38.4 µM
- GI50 [11]: 3.58 µM
- TGI [11]: 15.5 µM
- GI50 [12]: 8.81 µM
- TGI [12]: > 100 µM
- GI50 [13]: 3.3 µM
- TGI [13]: 11.7 µM
- GI50 [14]: 11.5 µM
- TGI [14]: 69.9 µM
- GI50 [15]: 5.19 µM
- TGI [15]: 23 µM
- GI50 [16]: 4.64 µM
- TGI [16]: 56.5 µM
- GI50 [17]: 2.7 µM
- TGI [17]: 8.75 µM
- GI50 [18]: 43.1 µM
- TGI [18]: > 100 µM
- GI50 [19]: 3.35 µM
- TGI [19]: 18.4 µM
- GI50 [20]: 1.85 µM
- TGI [20]: 4.11 µM
- GI50 [21]: 2.8 µM
- TGI [21]: 9.84 µM
- GI50 [22]: 1.93 µM
- TGI [22]: 4.75 µM
- GI50 [23]: 1.71 µM
- TGI [23]: 3.4 µM
- GI50 [24]: 5.3 µM
- TGI [24]: > 100 µM
- GI50 [25]: 5.51 µM
- TGI [25]: 20.7 µM
- GI50 [26]: 3.17 µM
- TGI [26]: 11.7 µM
- GI50 [27]: 3.12 µM
- TGI [27]: 10.8 µM
- GI50 [28]: 4.23 µM
- TGI [28]: 16.5 µM
- GI50 [29]: 3.14 µM
- TGI [29]: 10.6 µM
- GI50 [30]: 3.91 µM
- TGI [30]: 25.9 µM
- GI50 [31]: 9.02 µM
- TGI [31]: 22.2 µM
- GI50 [32]: 2.61 µM
- TGI [32]: 6.48 µM
- GI50 [33]: 2.75 µM
- TGI [33]: 7.05 µM
- GI50 [34]: 3.15 µM
- TGI [34]: 7.65 µM
- GI50 [35]: 100 µM
- TGI [35]: > 100 µM
- GI50 [36]: 2.39 µM
- TGI [36]: 6.92 µM
- GI50 [37]: 3.31 µM
- TGI [37]: 13 µM
- GI50 [38]: 14.1 µM
- TGI [38]: 35.7 µM
- GI50 [39]: 26.5 µM
- TGI [39]: > 100 µM
- GI50 [40]: 7.71 µM
- TGI [40]: 25.4 µM
- GI50 [41]: 3.44 µM
- TGI [41]: 15 µM
- GI50 [42]: 2.84 µM
- TGI [42]: 10.9 µM
- GI50 [43]: 5.28 µM
- TGI [43]: 22.5 µM
- GI50 [44]: 4.51 µM
- TGI [44]: 34 µM
- GI50 [45]: 18 µM
- TGI [45]: > 100 µM
- GI50 [46]: 3.03 µM
- TGI [46]: 13 µM
- GI50 [47]: 3.42 µM
- TGI [47]: 15.9 µM
- GI50 [48]: 24.9 µM
- TGI [48]: > 100 µM
- GI50 [49]: 4.68 µM
- TGI [49]: > 100 µM
- GI50 [50]: 4.87 µM
- TGI [50]: 27.7 µM
- GI50 [51]: 24.6 µM
- TGI [51]: > 100 µM
- GI50 [52]: 3.17 µM
- TGI [52]: 12.6 µM
- GI50 [53]: 3.57 µM
- TGI [53]: 12.9 µM
- GI50 [54]: 1.99 µM
- TGI [54]: 4.85 µM
- GI50 [55]: 2.12 µM
- TGI [55]: 5.78 µM

SMILES: Cc1ccc2c(c1)nc(-c1ccccc1)n2CC(=O)N=Nc1c(O)[nH]c2ccc(Cl)cc12
- GI50 [2]: 4.62 µM
- TGI [2]: 29.8 µM
- GI50 [3]: 1.84 µM
- TGI [3]: 3.55 µM
- GI50 [4]: 2.13 µM
- TGI [4]: 5.55 µM
- GI50 [5]: 1.86 µM
- TGI [5]: 3.77 µM
- GI50 [6]: 1.61 µM
- TGI [6]: 3.31 µM
- GI50 [8]: 1.81 µM
- TGI [8]: 3.57 µM
- GI50 [9]: 2.95 µM
- TGI [9]: 9.49 µM
- GI50 [10]: 2.11 µM
- TGI [10]: 4.44 µM
- GI50 [12]: 1.61 µM
- TGI [12]: 3.71 µM
- GI50 [14]: 2.41 µM
- TGI [14]: 52.9 µM
- GI50 [16]: 2.09 µM
- TGI [16]: 6.14 µM
- GI50 [17]: 2.07 µM
- TGI [17]: 4.43 µM
- GI50 [18]: 2.18 µM
- TGI [18]: 6.64 µM
- GI50 [20]: 1.34 µM
- TGI [20]: 2.77 µM
- GI50 [21]: 2.79 µM
- TGI [21]: 7.18 µM
- GI50 [22]: 1.5 µM
- TGI [22]: 3.04 µM
- GI50 [23]: 2.67 µM
- TGI [23]: 7 µM
- GI50 [24]: 2.53 µM
- TGI [24]: 5.8 µM
- GI50 [56]: 10.5 µM
- TGI [56]: 25 µM
- GI50 [27]: 2.01 µM
- TGI [27]: 4.92 µM
- GI50 [28]: 1.88 µM
- TGI [28]: 3.52 µM
- GI50 [30]: 1.57 µM
- TGI [30]: 3.76 µM
- GI50 [31]: 1.57 µM
- TGI [31]: 2.98 µM
- GI50 [32]: 1.84 µM
- TGI [32]: 3.76 µM
- GI50 [33]: 1.79 µM
- TGI [33]: 3.47 µM
- GI50 [36]: 1.94 µM
- TGI [36]: 5.14 µM
- GI50 [38]: 1.69 µM
- TGI [38]: 3.38 µM
- GI50 [39]: 3.41 µM
- TGI [39]: > 100 µM
- GI50 [40]: 1.91 µM
- TGI [40]: 3.93 µM
- GI50 [41]: 2.17 µM
- TGI [41]: 4.77 µM
- GI50 [42]: 1.75 µM
- TGI [42]: 3.45 µM
- GI50 [57]: 1.52 µM
- TGI [57]: 3.39 µM
- GI50 [43]: 2.38 µM
- TGI [43]: 5.44 µM
- GI50 [44]: 2.78 µM
- TGI [44]: 10.4 µM
- GI50 [45]: 1.78 µM
- TGI [45]: 3.54 µM
- GI50 [46]: 2.48 µM
- TGI [46]: 6.21 µM
- GI50 [58]: 1.38 µM
- TGI [58]: 3.36 µM
- GI50 [47]: 2.37 µM
- TGI [47]: 5.93 µM
- GI50 [48]: 2.36 µM
- TGI [48]: 6.49 µM
- GI50 [49]: 3.13 µM
- TGI [49]: > 100 µM
- GI50 [50]: 2.91 µM
- TGI [50]: 9.28 µM
- GI50 [51]: 1.69 µM
- TGI [51]: 3.29 µM
- GI50 [52]: 1.67 µM
- TGI [52]: 3.38 µM
- GI50 [53]: 2.39 µM
- TGI [53]: 11.5 µM
- GI50 [54]: 1.87 µM
- TGI [54]: 4.07 µM
- GI50 [55]: 1.7 µM
- TGI [55]: 3.35 µM
- GI50 [59]: 1.83 µM
- TGI [59]: 3.52 µM
